These results are taken from US11660303B2, “2-phenylimidazo[4,5-b]pyridin-7-amine derivates useful as inhibitors of mammalian tyrosine kinase ROR1 activity” (KANCERA AB, priority 2016, dated 2023).

Holding throughout (assay type): cell-based
The subject of one experiment is SUDHL4. Put plainly: MTT cytotoxicity assay, SUDHL4. The note with it: Homo sapiens, SU-DHL-4, SUDHL4, Diffuse large B-cell lymphoma (DLBCL), incubation 48 h. The protocol:
(§1) The MTT assay (Sigma-Aldrich) was used to measure cytotoxic capability of the ROR1 tyrosine kinase inhibitors (ROR1-TKI). Briefly, 2×10^4 cancer cells were incubated in triplicates in 200 μL of RPMI-1640 containing 10% FCS in 96 well plates. ROR1-TKI (dissolved in DMSO), were added to the cells. Cells treated with DMSO were used as negative control. Cells were incubated for 48, 72 or 96 h. An amount of 20 μL MTT solution was added and the cell suspension was incubated for 4 h at 37 degrees C. The reaction was stopped by adding 100 μL MTT solvent (10% SDS in 0.01 M HCl) and was incubated for further 2-4 h. The plate was then read by a microplate reader at 570 nm.
(§2) Results, in terms of IC50 (μM), are shown in Table 4 for a representative compound of the invention, viz. Example 172.

Another experiment deals with MS. Put plainly: MTT cytotoxicity assay, MS. The note with it: Diffuse large B-cell lymphoma (DLBCL), incubation 48 h. The protocol: as §1, §2
A further experiment deals with HDLM2. Nature of the experiment: Flow cytometry Annexin V/PI apoptosis assay, HDLM2. The note with it: Homo sapiens, HDLM-2, HDLM2, Hodgkin’s Lymphoma (HL), incubation 48 h. The protocol: (§3) Flow Cytometry Annexin V/PI Apoptosis Assay
(§4) An amount of 1 ml (10^5 cells/mL) of cells were seeded in each well of 6-well plates with and without compounds for 48 h. Cells were collected, washed with PBS, suspended in 100 μL of Annexin-V binding buffer (BD Biosciences) containing FITC-conjugated Annexin-V and PI (BD Biosciences) and incubated at room temperature in the dark for 20 min. After 20 min of incubation, 150 μL Annexin-V binding buffer was added. Viable cells were identified as the double negative Annexin-V and PI population. Samples were analyzed by a FACS Canto II Flow-cytometer (BD Biosciences).
as §2

The next experiment deals with MDA-V. Put plainly: MTT cytotoxicity assay, MDA-V. The note with it: Hodgkin’s Lymphoma (HL), incubation 48 h. The method, then:
as §1, §2

The test system of the next experiment is H146. Nature of the experiment: Alamar Blue cell viability assay, H146. The settings on record: Homo sapiens, NCI-H146; H146, Small cell lung cancer, alamarBlue, incubation 72 h. The method, then: (§5) Alamar Blue Cell Viability Assay
(§6) Cells were plated 12 hours prior to start of drug treatment, which lasted for 72 hours for all cytotoxicity experiments. Cell viability was estimated by alamarBlue™ Cell Viability Reagent (ThermoFisher, Waltham, Mass.) per manufacturer's instructions.
as §2

The next experiment concerns H211. Nature of the experiment: Alamar Blue cell viability assay, H211. The settings on record: Homo sapiens, NCI-H211; H211, Small cell lung cancer, alamarBlue, incubation 72 h. The method, then: as §5, §6, §2
A further experiment concerns H1963. Put plainly: Alamar Blue cell viability assay, H1963. The note with it: Homo sapiens, NCI-H1963; H1963, Small cell lung cancer, alamarBlue, incubation 72 h. The protocol: as §5, §6, §2
Another experiment concerns H1299. Put plainly: MTT cytotoxicity assay, H1299. The settings on record: Homo sapiens, NCI-H1299, H1299, Non-small cell lung cancer, incubation 72 h. The protocol: as §1, §2
The test system of the next experiment is Reh. Nature of the experiment: Flow cytometry Annexin V/PI apoptosis assay, Reh. The note with it: Homo sapiens, Non-T-cell non-B-cell-acute lymphoblastic leukemia, incubation 48 h. The method, then: as §3, §4, §2
Experiment [1] relates to KE37. Nature of the experiment: MTT cytotoxicity assay, KE37. The settings on record: Homo sapiens, KE-37, KE37, T-cell acute lymphoblastic leukemia (T-ALL), incubation 48 h. The protocol:
as §1, §2

Experiment [2] deals with KE37. Nature of the experiment: Flow cytometry Annexin V/PI apoptosis assay, KE37. The settings on record: Homo sapiens, KE-37, KE37, T-cell acute lymphoblastic leukemia (T-ALL), incubation 48 h. The protocol:
as §3, §4, §2

In experiment [3] the test system is HPB. Put plainly: MTT cytotoxicity assay, HPB. The settings on record: T-cell acute lymphoblastic leukemia (T-ALL), incubation 48 h. The method, then: as §1, §2
Experiment [4] deals with HPB. Put plainly: Flow cytometry Annexin V/PI apoptosis assay, HPB. The settings on record: T-cell acute lymphoblastic leukemia (T-ALL), incubation 48 h. The protocol:
as §3, §4, §2

The test system of a further experiment is SKOV3. Nature of the experiment: Flow cytometry Annexin V/PI apoptosis assay, SKOV3. The settings on record: Homo sapiens, SK-OV-3, SKOV3, Ovarian cancer (OC), incubation 48 h. The method, then:
as §3, §4, §2

The test system of experiment [5] is A2780. Nature of the experiment: MTT cytotoxicity assay, A2780. The settings on record: Homo sapiens, A2780, Ovarian cancer (OC), incubation 48 h. The method, then:
as §1, §2

The test system of experiment [6] is A2780. Nature of the experiment: Flow cytometry Annexin V/PI apoptosis assay, A2780. The settings on record: Homo sapiens, A2780, Ovarian cancer (OC), incubation 48 h. The method, then:
as §3, §4, §2

The next experiment deals with Granta-519. Put plainly: MTT cytotoxicity assay, Granta-519. The note with it: Homo sapiens, Granta-519, Mantle Cell Lymphoma (MCL), incubation 96 h. The method, then:
as §1, §2

In a further experiment the test system is Mino. Nature of the experiment: MTT cytotoxicity assay, Mino. The settings on record: Homo sapiens, Mantle Cell Lymphoma (MCL), incubation 96 h. The protocol: as §1, §2
A further experiment relates to JVM2. Nature of the experiment: MTT cytotoxicity assay, JVM2. The note with it: Homo sapiens, JVM-2, JVM2, Mantle Cell Lymphoma (MCL), incubation 96 h. The method, then: as §1, §2
Another experiment concerns Kelly. Put plainly: MTT cytotoxicity assay, Kelly. The note with it: Neuroblastoma, incubation 48 h. The protocol:
as §1, §2

Another experiment concerns 232-B4. Put plainly: MTT cytotoxicity assay, 232-B4. The settings on record: 232-B4, CLL cell line, ExPASy Accession No: CVCL_Y436, MTT, incubation 48 h. The method, then:
as §1, §2

Turning to `CCOCCN1CCN(c2ccc(-c3nc4c(NC5CCN(CC)CC5)c(Br)cnc4[nH]3)cc2)CC1` [Example 172, 6-Bromo-2-{4-[4-(2-ethoxyethyl)piperazin-1-yl]phenyl}-N-(1-ethylpiperidin-4-yl)-3H-imidazo[4,5-b]pyridin-7-amine], the IC50 stood at 50 nM in the experiment on SUDHL4; 100 nM in the experiment on MS; 100 nM in the experiment on HDLM2; 50 nM in the experiment with MDA-V; 230 nM in the experiment with H146; 180 nM in the experiment with H211. Also, the IC50 in the experiment on H1963 worked out at 200 nM; with H1299, 250 nM; in the experiment on Reh, 41 nM; with KE37 [1], 200 nM; in the experiment on KE37 [2] it was 180 nM; with HPB [3], 100 nM. Besides, the IC50 in the experiment with HPB [4] was 140 nM; with SKOV3, 610 nM; with A2780 [5] it was 100 nM; with A2780 [6] it was 270 nM; with Granta-519 it was 250 nM; in the experiment with Mino it was 50 nM. Further, the IC50 in the experiment with JVM2 was 200 nM; in the experiment on Kelly, 80 nM; with 232-B4, 200 nM.
